Measured values from ChEMBL document CHEMBL1201862, “PubChem BioAssay data set” (2004).
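Each compound was tested at five concentrations against cells in 96-well plates for 48 hours. GI50 = concentration required for 50% inhibition of growth.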 Activity calls are given as the source filed them. No stated cut-off is given here; in the data, active = GI50 up to about 1.1 µM and inactive = higher.

Tests used:
Assay in all cases: DTP human tumour cell line panel, 48 h
[1] = test system: OVCAR-5
[2] = test system: HOP-62
[3] = test system: SNB-75
[4] = test system: NCI/ADR-RES
[5] = test system: HCT-116
[6] = test system: NCI-H522
[7] = test system: SW-620
[8] = test system: UACC-62
[9] = test system: T47D
[10] = test system: SF-539
[11] = test system: A549
[12] = test system: UACC-257
[13] = test system: NCI-H23
[14] = test system: DU-145
[15] = test system: UO-31
[16] = test system: CAKI-1
[17] = test system: Hs-578T
[18] = test system: ACHN
[19] = test system: Malme-3M

Measured: GI50

Cc1cccc2c1Oc1cc(Cl)ccc1C2NC(=O)CCN1CCCCC1 (configuration not stated)
inactive: [1] 17.8 µM | [2] 14.3 µM | [3] 14.5 µM | [4] 15.5 µM | [5] 15.9 µM | [6] 16.9 µM | [7] 17.8 µM | [8] 14.7 µM | [9] 13.1 µM | [10] 16.7 µM | [11] 18.7 µM | [12] 16 µM | [13] 19.1 µM | [14] > 10 µM | [15] 15.4 µM

NC(=O)C(N)CC12CC3CC(CC(C3)C1)C2 (configuration not stated)
inactive: [1] 22.8 µM | [3] 32.7 µM | [16] 27.3 µM | [4] 25.2 µM | [5] 17 µM | [6] 15 µM | [7] 33 µM | [8] 14.5 µM | [17] 19.1 µM | [11] 45.6 µM | [12] 27.9 µM | [13] 25.4 µM | [18] 32.4 µM | [14] 12.6 µM | [15] 21.7 µM

Nc1ncnc2c1nnn2C1CCC(CP(=O)(O)O)C1 (configuration not stated)
inactive: [1] > 100 µM | [2] > 100 µM | [19] > 100 µM | [3] > 100 µM | [16] > 100 µM | [4] > 100 µM | [5] > 100 µM | [7] > 100 µM | [8] > 100 µM | [9] > 100 µM | [10] > 100 µM | [11] > 100 µM | [12] > 100 µM | [13] > 100 µM | [18] > 100 µM | [14] > 100 µM | [15] > 100 µM

N#CC(C(=O)c1cccnc1Cl)c1nc2cc(C(F)(F)F)ccc2s1 (configuration not stated)
inactive: [1] 33.9 µM | [2] 34.8 µM | [19] 37.1 µM | [3] 25.3 µM | [16] > 100 µM | [4] 65.5 µM | [5] 26.1 µM | [6] 19.8 µM | [7] 47.1 µM | [9] > 100 µM | [10] 99.3 µM | [11] > 100 µM | [12] 75 µM | [13] 30.8 µM | [18] > 100 µM | [14] > 100 µM | [15] 39.8 µM

CSc1nncc(-c2cc3c(c(SC)n2)CCC3)n1
inactive: [1] > 100 µM | [2] > 100 µM | [3] 22.1 µM | [16] 40.7 µM | [4] 69.5 µM | [5] 96.2 µM | [6] 28.8 µM | [7] 82.4 µM | [8] > 100 µM | [11] > 100 µM | [12] > 100 µM | [13] > 100 µM | [18] 53.6 µM | [14] > 100 µM | [15] > 100 µM

COC(=O)[C@](C)(Cc1ccccc1)NC(=O)[C@@H](C)N1[C@@H](c2ccccc2)COC1(C)C
inactive: [1] > 100 µM | [2] > 100 µM | [19] 44.6 µM | [3] 14.4 µM | [16] 82.2 µM | [4] 24.9 µM | [5] 38.5 µM | [6] 13.1 µM | [7] 51.8 µM | [8] 63.5 µM | [9] 46.5 µM | [17] 24.5 µM | [10] > 100 µM | [11] 63.8 µM | [12] 53.7 µM | [13] 51.9 µM | [18] 36.7 µM | [15] 30.6 µM

COc1ccc(C(=C[N+](=O)[O-])c2ccc(OC)cc2)cc1
inactive: [1] 38.8 µM | [2] 13.3 µM | [19] 13.3 µM | [3] 1.87 µM | [16] 11.6 µM | [5] 8.05 µM | [6] 4.45 µM | [7] 4.02 µM | [8] 9.55 µM | [10] 10.9 µM | [11] 13.6 µM | [12] 8.59 µM | [13] 12.7 µM | [18] 30.1 µM | [15] 17.7 µM

CCOP(=O)(OCC)/C(=C\N1C(=O)CC(=O)NC1=S)C(=O)OC
inactive: [1] > 100 µM | [2] > 100 µM | [3] > 100 µM | [16] > 100 µM | [4] > 100 µM | [5] > 100 µM | [7] > 100 µM | [8] > 100 µM | [9] > 100 µM | [10] > 100 µM | [11] > 100 µM | [12] > 100 µM | [13] > 100 µM | [18] > 100 µM | [14] > 100 µM | [15] > 100 µM

CC(=O)NC(NCCN)(c1ccccc1)c1ccccc1
inactive: [1] 67.9 µM | [2] > 100 µM | [19] > 100 µM | [3] > 100 µM | [4] > 100 µM | [5] > 100 µM | [7] > 100 µM | [17] > 100 µM | [10] > 100 µM | [11] > 100 µM | [12] > 100 µM | [13] > 100 µM | [18] > 100 µM | [14] > 100 µM | [15] 48 µM

CC(=O)O[C@H]1CC[C@@]2(C)C(=CC[C@@H]3[C@@H]2CC[C@]2(C)NC(=O)/C(=C\c4ccccc4)C[C@@H]32)C1
inactive: [1] 17.7 µM | [2] 13.2 µM | [19] 18 µM | [3] 19.1 µM | [16] 25.9 µM | [4] 24.5 µM | [5] 15.6 µM | [6] 15.6 µM | [7] 20.2 µM | [8] 14 µM | [9] 13.5 µM | [10] 16.1 µM | [11] 17.1 µM | [12] 17.5 µM | [13] 15.9 µM | [18] 21.9 µM | [14] 15.9 µM | [15] 15.7 µM

Nc1nc2ccc(OCC(O)CN3CCCCC3)cc2[n+]([O-])n1 (configuration not stated)
inactive: [1] > 100 µM | [19] > 100 µM | [3] 70.3 µM | [16] > 100 µM | [4] > 100 µM | [5] > 100 µM | [6] > 100 µM | [7] > 100 µM | [10] > 100 µM | [11] > 100 µM | [12] > 100 µM | [13] > 100 µM | [18] > 100 µM | [14] > 100 µM | [15] > 100 µM

Nc1ccc(S(=O)(=O)Nc2nnc(S(N)(=O)=O)s2)cc1
inactive: [1] > 100 µM | [19] > 100 µM | [3] > 100 µM | [16] > 100 µM | [4] > 100 µM | [5] > 100 µM | [6] > 100 µM | [7] > 100 µM | [8] > 100 µM | [9] > 100 µM | [10] > 100 µM | [11] > 100 µM | [13] > 100 µM | [18] > 100 µM | [14] > 100 µM | [15] > 100 µM
